# In ChEMBL document CHEMBL1125854, “Synthesis of substituted 5-amino-8-phenyl-3H,6H-1,4,5a,8a-tetraazaacenaphthalen-3-ones, a new class of agents for the improvement of cognition” (1991):
# “And” between values parts separate entries of the source, which are not always exact repeats. Equal values may be shown once.
# Assays:
# Format in all cases: functional
# Mus musculus [1] = experiment: Survival of mice after intraperitoneal administration of 100 mg/kg compound by using hypoxic survival test was determined; conditions: ip
# Mus musculus [2] = experiment: Attenuation of anoxic-induced amnesia in mice treated with 0.1 mg/kg compound administered intraperitoneally was determined; conditions: route intraperitoneal
# Mus musculus [3] = experiment: Tested for hypoxic survival test by 0.125 mg/kg intraperitoneal administration and percent survival of mice was reported; Value ranges from 60-80; conditions: ip
# Mus musculus [4] = experiment: (§1) Attenuation of anoxic-induced amnesia in mice treated with 100 mg/kg compound administered intraperitoneally was determined; conditions: route intraperitoneal
# Mus musculus [5] = experiment: as §1; conditions: route intraperitoneal; remark: listed apart in the source
# Mus musculus [6] = experiment: Attenuation of anoxic-induced amnesia in mice treated with 100 mg/kg compound administered intraperitoneally was determined; 153-209; conditions: route intraperitoneal
# Mus musculus [7] = experiment: Survival of mice after intraperitoneal administration of 50 mg/kg compound by using hypoxic survival test was determined; conditions: ip
# Mus musculus [8] = experiment: Tested for hypoxic survival test by 100 mg/kg intraperitoneal administration and percent survival of mice was reported.; conditions: ip
# Mus musculus [9] = experiment: Attenuation of anoxic-induced amnesia in mice treated with 10 mg/kg compound administered intraperitoneally was determined; conditions: route intraperitoneal
# Mus musculus [10] = experiment: Attenuation of anoxic-induced amnesia in mice treated with 25 mg/kg compound administered intraperitoneally was determined; conditions: route intraperitoneal
smiles,measurement,setting,value
CC(C)Nc1nc(=O)c2cnn3c2n1CC=C3c1cccc(C(F)(F)F)c1,survival at 100 mg/kg,Mus musculus [1],15%
CNC(=O)Oc1ccc2c(c1)[C@]1(C)CCN(C)[C@@H]1N2C [PHYSOSTIGMINE],Improvement,Mus musculus [2],36%
same,survival at 0.125 mg/kg,Mus musculus [3],60%
CC(C)CNc1nc(=O)c2cnn3c2n1CC=C3c1cccc(C(F)(F)F)c1,Latency,Mus musculus [4],51 s
same,Latency,Mus musculus [5],218 s
same,Improvement,Mus musculus [6],209%
same,survival at 50 mg/kg,Mus musculus [7],50%
CC(C)CNc1nc(=O)c2cnn3c2n1CC=C3c1ccccc1,survival at 100 mg/kg,Mus musculus [8],30%
CCCCNc1nc(=O)c2cnn3c2n1CC=C3c1cccc(C(F)(F)F)c1,survival at 100 mg/kg,Mus musculus [1],58%
CNc1nc(=O)c2cnn3c2n1CC=C3c1ccccc1,survival at 100 mg/kg,Mus musculus [8],95%
CC(C)Nc1nc(=O)c2cnn3c2n1CC=C3c1ccccc1,survival at 100 mg/kg,Mus musculus [8],20%
Nc1nc(=O)c2cnn3c2n1CC=C3c1cccc(C(F)(F)F)c1,Improvement,Mus musculus [4],20%
same,Latency,Mus musculus [4],180 s
same,Latency,Mus musculus [9],102 s
same,survival at 100 mg/kg,Mus musculus [8],68%
CCNc1nc(=O)c2cnn3c2n1CC=C3c1ccccc1,survival at 100 mg/kg,Mus musculus [8],73%
CCNc1nc(=O)c2cnn3c2n1CC=C3c1cccc(C(F)(F)F)c1,survival at 100 mg/kg,Mus musculus [1],65%
CCCCNc1nc(=O)c2cnn3c2n1CC=C3c1ccccc1,survival at 100 mg/kg,Mus musculus [8],70%
same,Improvement,Mus musculus [10],67%
same,Latency,Mus musculus [10],127 s and 132 s
